Test results as given in ChEMBL document CHEMBL3879915, “Methods of inhibiting PRMT5” (2014).

Experiments:
PRMT5/MEP50 complex = PRMT5/MEP50 complex (Homo sapiens, UniProt O14744); assay: Inhibition of recombinant human fetal brain FLAG-tagged PRMT5/full length human testis 6His-tagged MEP50 expressed in baculovirus infected insect Sf9 cells using human histone H4 (1 to 15 residues) as substrate preincubated for 30 mins followed by [3H]-SAM addition
[1] = molecular target: Protein arginine N-methyltransferase 5 (Homo sapiens, UniProt O14744); assay: Inhibition of PRMT5 in human Z138 cells assessed as decrease in di-methyl arginine levels after 96 hrs by Western blot method; type: cell-based
[2] = Antiproliferative activity against human Z138 cells assessed as inhibition of cell viability after 5 days by Cell-Titer Glo assay; type: functional, cell-based; conditions: Z-138, 120 h

Protein arginine N-methyltransferase 5, sequence (O14744 whole entry): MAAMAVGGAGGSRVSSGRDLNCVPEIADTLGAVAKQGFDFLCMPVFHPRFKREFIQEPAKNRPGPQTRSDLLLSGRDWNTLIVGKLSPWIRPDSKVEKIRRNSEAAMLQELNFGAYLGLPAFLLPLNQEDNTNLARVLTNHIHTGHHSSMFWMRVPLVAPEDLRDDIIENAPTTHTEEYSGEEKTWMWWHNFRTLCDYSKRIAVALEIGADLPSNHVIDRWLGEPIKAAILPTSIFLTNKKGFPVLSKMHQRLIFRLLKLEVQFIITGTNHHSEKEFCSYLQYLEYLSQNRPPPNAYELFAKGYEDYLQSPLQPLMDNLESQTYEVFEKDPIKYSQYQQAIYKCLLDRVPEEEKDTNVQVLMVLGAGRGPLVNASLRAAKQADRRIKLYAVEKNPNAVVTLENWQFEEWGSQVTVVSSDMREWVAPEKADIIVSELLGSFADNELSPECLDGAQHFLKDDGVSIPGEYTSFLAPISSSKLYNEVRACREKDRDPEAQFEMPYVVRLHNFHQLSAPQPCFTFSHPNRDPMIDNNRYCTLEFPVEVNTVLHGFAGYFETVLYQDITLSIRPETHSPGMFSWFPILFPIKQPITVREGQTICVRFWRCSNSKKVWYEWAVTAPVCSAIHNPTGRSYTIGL
PRMT5/MEP50 complex, sequence (O14744 whole entry, the tested form may be a part): as the sequence (O14744 whole entry) above
PRMT5/MEP50 complex, sequence (Q9BQA1 whole entry, further chain, the tested form may be a part): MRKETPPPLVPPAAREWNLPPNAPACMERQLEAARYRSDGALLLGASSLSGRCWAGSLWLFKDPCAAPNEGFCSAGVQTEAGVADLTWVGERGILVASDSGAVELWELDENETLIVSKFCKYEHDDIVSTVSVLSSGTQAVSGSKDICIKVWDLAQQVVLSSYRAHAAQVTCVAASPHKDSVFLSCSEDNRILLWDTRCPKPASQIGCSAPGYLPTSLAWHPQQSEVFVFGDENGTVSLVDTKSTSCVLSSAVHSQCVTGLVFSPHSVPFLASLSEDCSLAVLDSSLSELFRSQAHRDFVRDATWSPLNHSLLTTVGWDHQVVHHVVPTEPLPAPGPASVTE

Row | SMILES | IC50 (PRMT5/MEP50 complex) [µM] | EC50 [1] [µM] | EC50 [2] [µM]
1 | O=C(COc1ccccc1C1CCNC1)NCC(O)CN1CCc2ccccc2C1 (stereo not given) | 1 to 10 | 1 to 10 | > 20
2 | O=C1CN(c2cccc3cccnc23)CCN1CC(O)CN1CCc2ccccc2C1 (stereo not given) | < 0.1 | 0.101 to 1 | 1 to 10
3 | O=C1COc2ccccc2N1CC(O)CN1CCc2ccccc2C1 (stereo not given) | 0.101 to 1 | 0.101 to 1 | > 20
4 | CS(=O)(=O)Nc1ccc(C(=O)NCC(O)CN2CCc3ccccc3C2)cc1 (stereo not given) | 0.101 to 1 | 0.101 to 1 | 10 to 50
5 | O=C(NCC(O)CN1CCc2ccccc2C1)c1cccc(-c2cccnc2)c1 (stereo not given) | < 0.1 | < 0.1 | 1 to 10
6 | O=C(NCC(O)CN1CCc2ccccc2C1)c1cccc(CN2CCNCC2)c1 (stereo not given) | < 0.1 | 0.101 to 1 | 1 to 10
7 | CN(c1cccc(OCC(=O)NCC(O)CN2CCc3ccccc3C2)c1)S(C)(=O)=O (stereo not given) | 0.101 to 1 | 0.101 to 1 | > 20
8 | CNCCOc1cccc(C(=O)NCC(O)CN2CCc3ccccc3C2)c1 (stereo not given) | 0.101 to 1 | 1 to 10 | > 20
9 | O=C1CN(c2ccccc2Cl)CCN1CC(O)CN1CCc2ccccc2C1 (stereo not given) | 0.101 to 1 | 0.101 to 1 | 10 to 50
10 | O=C(NCC(O)CN1CCc2ccccc2C1)c1cccnc1 (stereo not given) | 0.101 to 1 | 0.101 to 1 | 10 to 50
11 | O=C1CN(c2cncc(N3CCOCC3)c2)CCN1CC(O)CN1CCc2ccccc2C1 (stereo not given) | < 0.1 | 0.101 to 1 | 1 to 10
12 | NC(=O)c1ccc(C(=O)NCC(O)CN2CCc3ccccc3C2)cc1 (stereo not given) | 0.101 to 1 | 0.101 to 1 | > 20
13 | CN(C)c1ccccc1N1CCN(C[C@H](O)CN2CCc3ccccc3C2)C(=O)C1 | 0.101 to 1 | 0.101 to 1 | 10 to 50
14 | O=C(NC[C@H](O)CN1CCc2ccccc2C1)Nc1ccccc1 | 0.101 to 1 | 0.101 to 1 | > 20
15 | O=C1Cc2ccccc2N1CC(O)CN1CCc2ccccc2C1 (stereo not given) | 0.101 to 1 | 0.101 to 1 | > 20
16 | CC(Oc1ccccc1S(C)(=O)=O)C(=O)NCC(O)CN1CCc2ccccc2C1 (stereo not given) | 0.101 to 1 | 1 to 10 | > 20
17 | O=C(NC[C@@H](O)CN1CCc2ccccc2C1)c1cccc(-c2ccccn2)c1 | < 0.1 | 0.101 to 1 | 10 to 50
18 | OC(COc1ccc(C2CCCNC2)cc1)CN1CCc2ccccc2C1 (stereo not given) | < 0.1 | 0.101 to 1 | 1 to 10
19 | Cc1ccc(N2CCN(CC(O)CN3CCc4ccccc4C3)C(=O)C2)cc1 (stereo not given) | 0.101 to 1 | 0.101 to 1 | > 20
20 | O=C(COc1cccc2c1OCC(=O)N2)NCC(O)CN1CCc2ccccc2C1 (stereo not given) | 1 to 10 | 1 to 10 | > 20
21 | CC(=O)Nc1cccc(C(=O)NCC(O)CN2CCc3ccccc3C2)c1 (stereo not given) | 0.101 to 1 | 0.101 to 1 | 10 to 50
22 | O=C(COc1cccc2c1CNCC2)NCC(O)CN1CCc2ccccc2C1 (stereo not given) | < 0.1 | 0.101 to 1 | 10 to 50
23 | O=C(NCC(O)CN1CCc2ccccc2C1)c1cccc(-c2ccccn2)c1 (stereo not given) | < 0.1 | < 0.1 | 1 to 10
24 | Cn1cc2c(OCC(=O)NCC(O)CN3CCc4ccccc4C3)cccc2n1 (stereo not given) | 0.101 to 1 | 1 to 10 | > 20
25 | CN1CCN(c2cccc(C(=O)NCC(O)CN3CCc4ccccc4C3)c2)CC1 (stereo not given) | < 0.1 | 0.101 to 1 | 10 to 50

Row | SMILES | IC50 (PRMT5/MEP50 complex) [µM] | EC50 [1] [µM] | EC50 [2] [µM]
26 | OC(CNc1cccc(CNC2CCCC2)c1)CN1CCc2ccccc2C1 (stereo not given) | 0.101 to 1 | 1 to 10 | > 20
27 | O=C(NCC(O)CN1CCc2ccccc2C1)c1cccc(N2CCOCC2)c1 (stereo not given) | < 0.1 | 0.101 to 1 | 1 to 10
28 | O=C(NCC(O)CN1CCc2ccccc2C1)c1cccc(CNC2CCOCC2)c1 (stereo not given) | < 0.1 | 0.101 to 1 | 10 to 50
29 | O=C1CN(c2cccc(F)c2)CCN1CC(O)CN1CCc2ccccc2C1 (stereo not given) | < 0.1 | 0.101 to 1 | > 20
30 | CC(Oc1cccc(CNC2CCCC2)c1)C(O)CN1CCc2ccccc2C1 (stereo not given) | 0.101 to 1 | 0.101 to 1 | 1 to 10
31 | COC(COc1cccc(CNC2CCCC2)c1)CN1CCc2ccccc2C1 (stereo not given) | 1 to 10 | > 20 | > 40
32 | CN1CCc2cccc(OCC(=O)NCC(O)CN3CCc4ccccc4C3)c2C1 (stereo not given) | 0.101 to 1 | 1 to 10 | > 20
33 | Cc1c(NC2CCOCC2)cccc1C(=O)NCC(O)CN1CCc2ccccc2C1 (stereo not given) | < 0.1 | < 0.1 | 1 to 10
34 | CNS(=O)(=O)c1ccccc1OCC(=O)NCC(O)CN1CCc2ccccc2C1 (stereo not given) | < 0.1 | 0.101 to 1 | 1 to 10
35 | O=C1CN(c2ccc(Cl)cc2)CCN1CC(O)CN1CCc2ccccc2C1 (stereo not given) | < 0.1 | 0.101 to 1 | 10 to 50
36 | O=C(NC[C@H](O)CN1CCc2ccccc2C1)c1cccc(-c2ccccn2)c1 | < 0.1 | < 0.1 | 0.101 to 1
37 | OC(COc1cccc(-c2ccccc2)c1)CN1CCc2ccccc2C1 (stereo not given) | 0.101 to 1 | 1 to 10 | > 20
38 | CN1CCC(c2ccccc2OCC(=O)NCC(O)CN2CCc3ccccc3C2)CC1 (stereo not given) | 0.101 to 1 | 1 to 10 | > 20
39 | CN(C)c1ncccc1OCC(=O)NCC(O)CN1CCc2ccccc2C1 (stereo not given) | 0.101 to 1 | 1 to 10 | > 20
40 | CC(=O)N1CCN(S(=O)(=O)c2ccccc2OCC(=O)NCC(O)CN2CCc3ccccc3C2)CC1 (stereo not given) | 0.101 to 1 | 1 to 10 | > 20
41 | CN1CCCC1c1cccc(C(=O)NCC(O)CN2CCc3ccccc3C2)c1 (stereo not given) | < 0.1 | 0.101 to 1 | 10 to 50
42 | O=C(NCC(O)CN1CCc2ccccc2C1)c1ccccn1 (stereo not given) | 0.101 to 1 | 0.101 to 1 | > 20
43 | O=C(NCC(O)CN1CCc2ccccc2C1)c1cccc(N2CCNCC2)c1 (stereo not given) | < 0.1 | 0.101 to 1 | 10 to 50
44 | O=c1cc(Nc2ccccc2)ccn1C[C@@H](O)CN1CCc2ccccc2C1 | 0.101 to 1 | 0.101 to 1 | > 20
45 | O=C1CN(c2cccc(N3CCOCC3)c2)CCN1CC(O)CN1CCc2ccccc2C1 (stereo not given) | < 0.1 | < 0.1 | 1 to 10
46 | O=C(NC[C@H](O)CN1CCc2ccccc2C1)c1ccccc1 | < 0.1 | < 0.1 | 1 to 10
47 | NC(=O)c1cccc(C(=O)NCC(O)CN2CCc3ccccc3C2)c1 (stereo not given) | 0.101 to 1 | 1 to 10 | > 20
48 | O=C(NCC(O)CN1CCc2ccccc2C1)c1cccc(C2CCCN2)c1 (stereo not given) | 0.101 to 1 | 1 to 10 | > 20
49 | O=C(NCC(O)CN1CCc2ccccc2C1)c1ccccc1-c1ccccn1 (stereo not given) | 0.101 to 1 | 1 to 10 | > 20

Continued, in another order:

Row | IC50 (PRMT5/MEP50 complex) [µM] | EC50 [1] [µM] | SMILES | EC50 [2] [µM]
50 | < 0.1 | < 0.1 | O=C(NCC(O)CN1CCc2ccccc2C1)c1ccc(-c2ccccn2)cc1 (stereo not given) | 0.101 to 1
51 | < 0.1 | 0.101 to 1 | CN1CCN(Cc2cccc(C(=O)NCC(O)CN3CCc4ccccc4C3)c2)CC1 (stereo not given) | 1 to 10
52 | < 0.1 | 0.101 to 1 | O=C(NCC(O)CN1CCc2ccccc2C1)c1cccc(C2CCNC2)c1 (stereo not given) | > 20
53 | < 0.1 | < 0.1 | O=C(NCC(O)CN1CCc2ccccc2C1)c1cccc(-c2ccncc2)c1 (stereo not given) | 1 to 10
54 | 0.101 to 1 | 0.101 to 1 | CC(=O)Nc1ccc(C(=O)NCC(O)CN2CCc3ccccc3C2)cc1 (stereo not given) | > 20
55 | 0.101 to 1 | 1 to 10 | O=C(COc1cccc2ncc(=O)[nH]c12)NCC(O)CN1CCc2ccccc2C1 (stereo not given) | > 20
56 | < 0.1 | 0.101 to 1 | CN1CCCC(c2ccccc2OCC(=O)NCC(O)CN2CCc3ccccc3C2)C1 (stereo not given) | 1 to 10
57 | < 0.1 | 0.101 to 1 | O=C(NCC(O)CN1CCc2ccccc2C1)c1cccc(-c2cc[nH]n2)c1 (stereo not given) | 1 to 10
58 | < 0.1 | 0.101 to 1 | CN1CCC(c2cccc(C(=O)NCC(O)CN3CCc4ccccc4C3)c2)C1 (stereo not given) | 10 to 50
59 | 0.101 to 1 | 0.101 to 1 | NS(=O)(=O)c1cccc(C(=O)NCC(O)CN2CCc3ccccc3C2)c1 (stereo not given) | > 20
60 | < 0.1 | < 0.1 | CCN(c1cccc(C(=O)NCC(O)CN2CCc3ccccc3C2)c1C)C1CCOCC1 (stereo not given) | 1 to 10
61 | 0.101 to 1 | 0.101 to 1 | NS(=O)(=O)c1ccc(C(=O)NCC(O)CN2CCc3ccccc3C2)cc1 (stereo not given) | > 20
62 | < 0.1 | < 0.1 | Cn1nccc1-c1cccc(C(=O)NCC(O)CN2CCc3ccccc3C2)c1 (stereo not given) | 1 to 10
63 | 0.101 to 1 | 0.101 to 1 | O=C(COc1ccccc1C1CCCNC1)NCC(O)CN1CCc2ccccc2C1 (stereo not given) | 1 to 10
64 | 0.101 to 1 | 1 to 10 | O=C(COc1ccccc1-c1ncc[nH]1)NCC(O)CN1CCc2ccccc2C1 (stereo not given) | > 20
65 | < 0.1 | < 0.1 | O=C(NCC(O)CN1CCc2ccccc2C1)c1cccc(NC2CCOCC2)c1 (stereo not given) | 0.101 to 1
66 | < 0.1 | 0.101 to 10 | Cn1cnc2ccc(-c3cccc(OCC(O)CN4CCc5ccccc5C4)c3)cc21 (stereo not given) | 1 to 20
67 | < 0.1 | 0.101 to 1 | CN(C)CCOc1cccc(C(=O)NCC(O)CN2CCc3ccccc3C2)c1 (stereo not given) | 10 to 50
68 | 0.101 to 1 | 0.101 to 1 | O=C(NC[C@@H](O)CN1CCc2ccccc2C1)c1cccc(NC2CCOCC2)c1 | 1 to 10
69 | < 0.1 | 0.101 to 1 | CS(=O)(=O)Nc1cccc(C(=O)NCC(O)CN2CCc3ccccc3C2)c1 (stereo not given) | 1 to 10
70 | 0.101 to 1 | 1 to 10 | O=C(c1ccc(Cn2nccc2-c2ccc(OCC(O)CN3CCc4ccccc4C3)cc2)cc1)N1CCCC1 (stereo not given) | 10 to 40
